How the values were obtained:
CypA = target: T1, CypA (Homo sapiens, UniProt P62937); assay: CypA PPIase activity inhibition; format: biochemical; settings: PPIase IC50 CypA vs CypD
T1 construct: Active human CypA full-length protein was from Abcam; purchased Abcam

SHSY5Y cells = assay: Neuroprotective effects summarised over all five assays (viability, TMRM, ROS, GSH, mPTP); format: cell-based, human; settings: 0.001, 0.01 or 0.1 μM; H2O2 challenge
Method: As described previously, neuroprotective agents can mediate their effects through inhibition of CypD, an isoform of CypA. […] All assays were performed at the indicated concentrations (0.001, 0.01, or 0.1 μM) based on initial cytotoxicity determined with SHSY5Y cells (Table 1).

CypD = CypD (Homo sapiens, UniProt P30405); assay: CypD enzyme inhibition assay (PPIase activity); format: biochemical; settings: for IC50: CypD 1 nM; for selectivity for CypD over CypA: PPIase IC50 CypA vs CypD
Sequence of CypD (P30405 30-207): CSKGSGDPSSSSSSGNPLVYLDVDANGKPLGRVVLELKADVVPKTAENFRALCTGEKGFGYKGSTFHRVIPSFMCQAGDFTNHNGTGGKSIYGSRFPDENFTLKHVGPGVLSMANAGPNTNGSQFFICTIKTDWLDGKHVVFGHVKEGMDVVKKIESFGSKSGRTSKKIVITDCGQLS
Method: The inhibition of the peptidyl-prolyl cis-trans isomerase (PPIase) activity of compounds was determined by following the rate of hydrolysis of N-succinyl-Ala-Ala-Pro-Phe-pnitroanilide by chymotrypsin. CsA was used as positive control. The assay was performed as previously described (Yan, W., Qing, J., Mei, H., Nong, J., Huang, J., Zhu, J., Jiang, H., Liu, L., Zhang, L. and Li, J. Bioorg. Med. Chem. Lett., 2015, 25, 5682-5686) with small modifications. The assay buffer (20 mM Tris-HCl, 50 mM NaCl, pH 7.8), CypD (1 nM) and the compounds at concentrations ranging from 0.001 to 10 μM were pre-cooled at 4° C. for 1 h. After that time, chymotrypsin at 0.4 mg/mL in 1 mM HCl was added to each well. The reaction was initiated by the addition of the peptide (0.1 mg/mL in 500 mM LiCl in THF). The absorbance at 380 nm was monitored every 30 sec for 5 min with a spectrophotometer plate reader. The blank rates of hydrolysis (in absence of CypD) were subtracted from the rates in the presence of the enzyme. The half-maximal inhibitory concentration (IC50) was calculated by fitting the data with a log(inhibitor) vs. response model of GraphPad Prism 5.0 software. All experiments were performed four times.

SH-SY5Y cells [1] = assay: Intracellular ROS levels (carboxy-H2DCFDA) after H2O2; format: cell-based, human; settings: 150 μM H2O2 co-treatment 6 h
Method: Intracellular levels of reactive oxygen species (ROS) were determined with carboxy-H2DCFDA (5-(and-6)-carboxy-2′,7′-dichlorodihydrofluorescein diacetate). This dye diffuses through the cellular membrane and is converted by cellular esterases to carboxy-H2DCFH (non-fluorescent). When carboxy-H2DCFH is oxidized by ROS, it becomes fluorescent (Halliwell, B. and Whiteman, M. Br. J. Pharmacol., 2004, 142, 231-255). Cells were seeded at a density of 2.5×10^5 cells/mL in 96-well plates and allowed to attach for 24 h. Following treatment with compounds at various concentrations (1 μM→1 nM) and 150 μM H2O2 for 6 h, SH-SY5Y cells were washed twice with serum-free culture medium. Then, carboxy-H2DCFDA 20 μM dissolved in serum-free culture medium was added to each well and the cells were incubated for 1 h at 37° C. After this incubation, the medium with the fluorescent dye was replaced with PBS and the plate was incubated for 30 min at 37° C. Fluorescence was read at 527 nm, with an excitation wavelength of 495 nm. All experiments were performed four times.

SH-SY5Y cells [2] = assay: Neuroprotection against H2O2 toxicity, cell viability by MTT; format: cell-based, human; settings: 150 μM H2O2 co-treatment 6 h; 0.01, 0.1 and 1 μM
Method: SH-SY5Y cells were seeded in 96-well plates at a density of 2.5×10^5 cells/mL and allowed to adhere for 24 h. At first, cells were treated only with compounds at concentrations ranging from 10-0.01 μM for 24 h to determine their possible cytotoxic effects. Experiments were carried out three times. For neuroprotective experiments, cells were treated with compounds at non-toxic concentrations (1 μM→1 nM) and 150 μM H2O2 for 6 h. Briefly, cells were washed three times with saline solution and 200 μL of MTT (500 μg/mL) dissolved in saline buffer were added to each well. Following 1 h of incubation at 37° C., the cells were disaggregated with sodium dodecyl sulphate at 5%. Absorbance of formazan crystals was measured at 595 nm with a spectrophotometer plate reader. Saponin was used as death control and its absorbance was subtracted from the other data. All experiments were performed four times.

[3] = Viability of human T lymphocytes (MTT assay, 48 h); format: cell-based; settings: human; 0.1 μM, 48 hours; read-out: decrease in cell viability
From the text: (§1) The MTT (3-[4,5-dimethylthiazol-2-yl]-2,5-diphenyltetrazoliumbromide) assay was used to determine the cytotoxicity of gracilin derivatives in T lymphocytes (Burton, J. D. Methods Mol. Med., 2005, 110, 69-78) and SH-SY5Y cells and the protective effect of these compounds against H2O2 insult in neuroblastoma cells as previously described (Leiros, M., Alonso, E., Sanchez, J. A., Rateb, M. E., Ebel, R., Houssen, W. E., Jaspars, M., Alfonso, A. and Botana, L. M. ACS Chem. Neurosci., 2014, S, 71-80). Human T lymphocytes were cultured in 24 well plates at the concentration of 2.5×10^6 cells/mL and exposed to different compound concentrations (0.01, 0.1, 1 and 10 μM) added to the culture medium. Human T cells were maintained in the presence of the pure compound at 37° C. in humidified 5% CO2/95% air atmosphere for 48 h.
(§2) Saponin was used as cellular death control and its absorbance was subtracted from the other data. After the incubation period with compounds, assay was performed. First cells were centrifuged (1500 rpm, 5 min, 4° C.). The pellets were resuspended in saline solution with MTT (250 μg/mL) and then incubated at 37° C. during 30 min. After washing off excess MTT twice with saline solution, cells were disaggregated with H2O and sonicated for 1 min and the absorbance of the colored formazan salt was measured at 595 nm in a spectrophotometer plate reader. All experiments were performed three times.

human T lymphocytes = assay: Viability of human T lymphocytes (MTT assay, 48 h); format: cell-based; settings: in words
From the text: as §1, §2

T1 sequence (P62937 whole entry): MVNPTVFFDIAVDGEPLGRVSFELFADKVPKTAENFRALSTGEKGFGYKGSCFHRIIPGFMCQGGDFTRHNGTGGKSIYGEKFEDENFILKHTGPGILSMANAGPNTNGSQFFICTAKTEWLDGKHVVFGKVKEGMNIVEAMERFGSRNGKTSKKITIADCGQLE

| SMILES | selectivity for CypA (CypA) | neuroprotective / antioxidant effects based on all five assays (SHSY5Y cells) | IC50 (CypD) | ROS levels (SH-SY5Y cells [1]) | protection of cell viability against H2O2 insult (SH-SY5Y cells [2]) | selectivity for CypD over CypA (CypD) | selectivity for CypD over CypA (CypD; listed as (−)-27a) | cytotoxicity at 48 h, 0.1 μM [3] | impact on T-cell viability (human T lymphocytes) |
| --- | --- | --- | --- | --- | --- | --- | --- | --- | --- |
| CC(=O)O[C@H]1O[C@@H](OC(C)=O)[C@@H]2CC[C@](O)(C3(C)CCCC(C)(C)C3)C[C@H]12 (stereo partly drawn) [Compound 22, (1S,3R,3aS,5R,7aR)-5-hydroxy-5-(1,3,3-trimethylcyclohexyl)octahydroisobenzo-furan-1,3-diyl diacetate] | 4 fold | displayed significant neuroprotective effects | < 500 nM | diminishing ROS at two or three concentrations | protected cells against H2O2 insult at almost all concentrations | – | – | – | – |
| CC(=O)O[C@@H]1OC[C@H]2C=C(C3(C)CCCCC3)CC[C@@H]12 [Compound 27a, (1S,3aS,7aR)-5-(1-methylcyclohexyl)-1,3,3a,6,7,7a-hexahydroisobenzofuran-1-yl acetate] | – | displayed significant neuroprotective effects | < 500 nM | diminishing ROS at two or three concentrations | protected cells against H2O2 insult at almost all concentrations | about 3 fold | ~3 fold | – | – |
| CC(=O)O[C@H]1OC[C@@H]2C=C([C@@]3(C)CCCC(C)(C)C3)CC[C@H]12 [Compound 29a, (1R,3aR,7aS)-5-(1,3,3-trimethylcyclohexyl)-1,3,3a,6,7,7a-hexahydroisobenzofuran-1-yl acetate] | – | displayed significant neuroprotective effects | < 500 nM | – | protected cells against H2O2 insult at almost all concentrations | – | – | 15 to 25% | relatively non-toxic |

— US11066379B2 (THE TEXAS A&M UNIVERSITY SYSTEM, priority 2018, dated 2021)
